Key:
FsnR = target: T1, FsnR (Stenotrophomonas maltophilia, UniProt B2FQU0); assay: microscale thermophoresis (MST); type: binding; conditions: PBS buffer; labelled protein
T1 construct: gene Smlt2299; full length, recombinant from E. coli BL21(DE3), C-terminal His6 or GST tag (GST cleaved on column); Red NHS labelled for MST

RavS = target: T2, RavS (Stenotrophomonas maltophilia, UniProt B2FQW5); assay: microscale thermophoresis (MST); type: binding; conditions: PBS buffer; 20 nM fluorescein-labeled RavS
T2 construct: gene Smlt2324; recombinant from E. coli BL21(DE3), C-terminal His6 or GST tag (GST cleaved); phosphorylated His503; labelled for MST
T2 sequence (B2FQW5 entry or part of it): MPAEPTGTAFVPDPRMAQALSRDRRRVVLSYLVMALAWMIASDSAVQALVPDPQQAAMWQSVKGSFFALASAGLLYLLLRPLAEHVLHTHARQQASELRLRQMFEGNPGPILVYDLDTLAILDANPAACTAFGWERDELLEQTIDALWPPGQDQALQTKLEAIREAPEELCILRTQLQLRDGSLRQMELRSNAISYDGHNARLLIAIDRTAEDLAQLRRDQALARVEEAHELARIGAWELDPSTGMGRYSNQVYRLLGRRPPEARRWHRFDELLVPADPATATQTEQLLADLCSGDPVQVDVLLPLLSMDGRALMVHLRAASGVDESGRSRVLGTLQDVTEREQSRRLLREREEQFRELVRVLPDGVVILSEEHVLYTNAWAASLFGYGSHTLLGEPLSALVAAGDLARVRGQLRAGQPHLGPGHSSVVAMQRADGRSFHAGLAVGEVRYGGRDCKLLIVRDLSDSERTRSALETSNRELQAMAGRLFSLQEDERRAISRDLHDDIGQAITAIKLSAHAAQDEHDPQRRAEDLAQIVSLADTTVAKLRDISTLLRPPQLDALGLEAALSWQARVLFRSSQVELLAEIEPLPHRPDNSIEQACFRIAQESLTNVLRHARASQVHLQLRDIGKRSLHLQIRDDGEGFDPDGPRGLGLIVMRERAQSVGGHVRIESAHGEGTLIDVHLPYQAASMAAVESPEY

T1 sequence (B2FQU0 entry or part of it): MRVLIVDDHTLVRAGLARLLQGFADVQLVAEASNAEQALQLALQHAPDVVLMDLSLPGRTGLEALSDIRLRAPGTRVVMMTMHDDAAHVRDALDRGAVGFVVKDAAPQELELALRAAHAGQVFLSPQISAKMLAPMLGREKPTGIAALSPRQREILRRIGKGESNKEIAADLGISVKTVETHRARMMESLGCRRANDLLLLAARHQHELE

Nc1nc2c(ncn2[C@@H]2O[C@@H]3CO[P@](=O)(O)O[C@H]4[C@@H](O)[C@H](n5cnc6c(=O)[nH]c(N)nc65)O[C@@H]4CO[P@](=O)(O)O[C@H]3[C@H]2O)c(=O)[nH]1 [c-di-GMP]
Kd (FsnR): 3430 ± 1360 nM
Kd (RavS): 1480 ± 360 nM

— PMC9600515, “Dual Regulatory Role Exerted by Cyclic Dimeric GMP To Control FsnR-Mediated Bacterial Swimming” (mBio, 2022)
